Where two headings read alike, the source gives them in different places.

The test system of the test is HBV rcDNA. Kind of test: HepDE19 assay with bDNA quantitation of HBV rcDNA. In kind it is cell-based, hepatitis B virus. In short, it runs like this: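 Compounds, top concentration 25 μM in 8-point duplicate series, were applied to Tet-free HepDE19 cultures for 7 days. Branched-DNA quantitation of HBV rcDNA against untreated wells gave EC50 and EC90 by 4-parameter fit. Viability (CC50) came from ATP luminescence on parallel plates incubated 4 days.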

The mark [1] stands for this setting: HepDE19 assay, inhibition of formation of relaxed circular DNA (rcDNA), bDNA quantitation, read-out: DE-19bDNA EC50.
[2] abbreviates: HepDE19 assay, inhibition of formation of rcDNA, read-out: DE-19bDNA EC50.
Setting [3] is: Hepatitis B virus, HepDE19, HepDE19 assay, inhibition of formation of rcDNA, read-out: DE-19bDNA EC50.

As to `CC(c1cn(C)c(=O)c2cc(F)c(F)cc12)N(CCCO)C(=O)Nc1ccc(F)c(Cl)c1` (single isomer, unassigned) [Compound 350, 3-(3-Chloro-4-fluorophenyl)-1-(1-(6,7-difluoro-2-methyl-1-oxo-1,2-dihydroisoquinolin-4-yl)ethyl)-1-(3-hydroxypropyl)urea], the concentration giving a half-maximal response (EC50) under setting [1] amounted to 3.6 µM.

Take `CCN(C(=O)Nc1ccc(F)c(Cl)c1)C(c1cnc(OC)c2ccccc12)C(C)C` (single isomer, unassigned) [Compound 45, 3-(3-Chloro-4-fluorophenyl)-1-ethyl-1-(1-(1-methoxyisoquinolin-4-yl)-2-methylpropyl)urea]: under setting [2], the EC50 came to 19 µM.

Take `CC(c1cnc(C(N)=O)c2ccccc12)N(C)C(=O)Nc1ccc(F)c(Cl)c1` (single isomer, unassigned) [Compound 328, 4-(1-(3-(3-Chloro-4-fluorophenyl)-1-methylureido)ethyl)isoquinoline-1-carboxamide]: the EC50 under setting [1] amounted to 4.1 µM.

For `CC(c1cnc(OCc2nc[nH]n2)c2cc(F)c(F)cc12)N(CCCO)C(=O)Nc1ccc(F)c(Cl)c1` (single isomer, unassigned) [Compound 365, 1-(1-(1-((1H-1,2,4-Triazol-3-yl)methoxy)-6,7-difluoroisoquinolin-4-yl)ethyl)-3-(3-chloro-4-fluorophenyl)-1-(3-hydroxypropyl)urea], the half-maximal effective concentration (EC50) under setting [1] worked out at 0.009 µM.

As for `COc1ncc(CN(C(=O)Nc2ccc(F)c(Cl)c2)C(C)C)c2ccccc12` [Compound 19, 3-(3-Chloro-4-fluorophenyl)-1-isopropyl-1-((1-methoxyisoquinolin-4-yl)methyl)urea], the EC50 under setting [3] came to 2.1 µM.

For `CC(c1c[nH]c(=O)c2ccccc12)N(C[C@H]1CC[C@H](O)CC1)C(=O)Nc1ccc(F)c(Cl)c1` (mixture of isomers) [Compound 221, trans-3-(3-Chloro-4-fluorophenyl)-1-((4-hydroxycyclohexyl)methyl)-1-(1-(1-oxo-1,2-dihydroisoquinolin-4-yl)ethyl)urea], the EC50 under setting [3] came out at 0.21 µM.

Turning to `CC(c1c[nH]c(=O)c2c(F)c(F)ccc12)N(C)C(=O)Nc1ccc(F)c(Cl)c1` (single isomer, unassigned) [Compound 330, 3-(3-Chloro-4-fluorophenyl)-1-(1-(7,8-difluoro-1-oxo-1,2-dihydroisoquinolin-4-yl)ethyl)-1-methylurea], under setting [1], the half-maximal effective concentration (EC50) stood at 0.99 µM.

For the molecule `Cc1[nH]c(=O)c2ccccc2c1C(C)N(C)C(=O)Nc1ccc(F)c(Cl)c1` (single isomer, unassigned) [Compound 222, 3-(3-Chloro-4-fluorophenyl)-1-methyl-1-(1-(3-methyl-1-oxo-1,2-dihydroisoquinolin-4-yl)ethyl)urea], under setting [2], the EC50 is 0.62 µM.

With `CCN(Cc1cnc(OC)c2ccccc12)C(=O)Nc1ccc(F)c(Cl)c1` [Compound 15, 3-(3-Chloro-4-fluorophenyl)-1-ethyl-1-((1-methoxyisoquinolin-4-yl)methyl)urea], the concentration giving a half-maximal response (EC50) under setting [3] was 1.2 µM.

As for `COc1ccc2c(=O)[nH]cc(C(C)N(C)C(=O)Nc3ccc(F)c(Cl)c3)c2c1` (single isomer, unassigned) [Compound 180, 3-(3-Chloro-4-fluorophenyl)-1-(1-(6-methoxy-1-oxo-1,2-dihydroisoquinolin-4-yl)ethyl)-1-methylurea], the EC50 under setting [2] turned out to be 1.4 µM.

With `CC(c1c[nH]c(=O)c2ccc(F)cc12)N(CC(CO)CO)C(=O)Nc1ccc(F)c(Cl)c1` (single isomer, unassigned) [Compound 295, 3-(3-Chloro-4-fluorophenyl)-1-(1-(6-fluoro-1-oxo-1,2-dihydroisoquinolin-4-yl)ethyl)-1-(3-hydroxy-2-(hydroxymethyl)propyl)urea], the 50% effective concentration (EC50) under setting [1] is 1.9 µM.

As for `CCN(C(=O)Nc1ccc(F)c(F)c1)C(C)c1c[nH]c(=O)c2c(F)c(F)ccc12` (single isomer, unassigned) [Compound 463, 1-(1-(7,8-Difluoro-1-oxo-1,2-dihydroisoquinolin-4-yl)ethyl)-3-(3,4-difluorophenyl)-1-ethylurea], the EC50 under setting [1] amounted to 0.008 µM.

With `CC(C)CN(C(=O)Nc1ccc(F)c(Cl)c1)C(C)c1cnc(-n2cncn2)c2ccccc12` (single isomer, unassigned) [Compound 345, 1-(1-(1-(1H-1,2,4-triazol-1-yl)isoquinolin-4-yl)ethyl)-3-(3-chloro-4-fluorophenyl)-1-isobutylurea], under setting [1], the concentration giving a half-maximal response (EC50) turned out to be 0.0095 µM.

Turning to `CC(c1c[nH]c(=O)c2ccccc12)N(CC(CO)CO)C(=O)Nc1ccc(F)c(Cl)c1` (single isomer, unassigned) [Compound 284, 3-(3-Chloro-4-fluorophenyl)-1-(3-hydroxy-2-(hydroxymethyl)propyl)-1-(1-(1-oxo-1,2-dihydroisoquinolin-4-yl)ethyl)urea], the 50% effective concentration (EC50) (Hepatitis B virus, HepDE19, HepDE19 assay, inhibition of formation of relaxed circular DNA (rcDNA), bDNA quantitation, read-out: DE-19bDNA EC50) worked out at 0.092 µM.

Consider `COCCN(C(=O)Nc1ccc(F)c(Cl)c1)C(C)c1cnc(OC)c2ccccc12` (single isomer, unassigned) [Compound 72, 3-(3-Chloro-4-fluorophenyl)-1-(2-methoxyethyl)-1-(1-(1-methoxyisoquinolin-4-yl)ethyl)urea], for which, under setting [2], the EC50 came out at 21 µM.

Take `CC(c1cn(C)c(=O)c2cc(F)c(F)cc12)N(C)C(=O)Nc1ccc(F)c(Cl)c1` (single isomer, unassigned) [Compound 340, 3-(3-Chloro-4-fluorophenyl)-1-(1-(6,7-difluoro-2-methyl-1-oxo-1,2-dihydroisoquinolin-4-yl)ethyl)-1-methylurea]: the EC50 under setting [1] worked out at 4.6 µM.

For the molecule `CC(c1c[nH]c(=O)c2cnccc12)N(CCCO)C(=O)Nc1ccc(F)c(Cl)c1` (single isomer, unassigned) [Compound 252, 3-(3-Chloro-4-fluorophenyl)-1-(3-hydroxypropyl)-1-(1-(1-oxo-1,2-dihydro-2,7-naphthyridin-4-yl)ethyl)urea], under setting [2], the concentration for a half-maximal effect (EC50) is 0.052 µM.

Consider `CC(c1c[nH]c(=O)c2cc(F)c(F)cc12)N(C)C(=O)NCc1ccc(F)c(F)c1` (single isomer, unassigned) [Compound 477, 1-(1-(6,7-Difluoro-1-oxo-1,2-dihydroisoquinolin-4-yl)ethyl)-3-(3,4-difluorobenzyl)-1-methylurea], for which the half-maximal effective concentration (EC50) under setting [1] was determined as 10 µM.

As for `CCN(C(=O)Nc1ccc(F)c(Cl)c1)C(c1ccccc1)c1cnc(OC)c2ccccc12` (single isomer, unassigned) [Compound 59, 3-(3-Chloro-4-fluorophenyl)-1-ethyl-1-((1-methoxyisoquinolin-4-yl)(phenyl)methyl)urea], the EC50 under setting [2] was found to be 22 µM.

As for `COc1ncc(C(C)N(CCCO)C(=O)Nc2ccc(F)c(Cl)c2)c2ccccc12` (single isomer, unassigned) [Compound 140, 3-(3-Chloro-4-fluorophenyl)-1-(3-hydroxypropyl)-1-(1-(1-methoxyisoquinolin-4-yl)ethyl)urea], the EC50 under setting [3] was 0.23 µM.

As to `CC(c1c[nH]c(=O)c2c(F)c(F)ccc12)N(C)C(=O)NCc1cc(F)c(F)c(F)c1` (single isomer, unassigned) [Compound 493, 1-(1-(7,8-Difluoro-1-oxo-1,2-dihydroisoquinolin-4-yl)ethyl)-1-methyl-3-(3,4,5-trifluorobenzyl)urea], the EC50 under setting [1] is 15 µM.

On to `CC(c1c[nH]c(=O)c2ccccc12)N(Cc1ccncn1)C(=O)Nc1ccc(F)c(Cl)c1` (single isomer, unassigned) [Compound 322, 3-(3-Chloro-4-fluorophenyl)-1-(1-(1-oxo-1,2-dihydroisoquinolin-4-yl)ethyl)-1-(pyrimidin-4-ylmethyl)urea], for which the EC50 under setting [1] turned out to be 0.35 µM.

Regarding `CC(c1c[nH]c(=O)c2c(F)c(F)ccc12)N(C)C(=O)Nc1ccc(F)cc1` (single isomer, unassigned) [Compound 433, 1-(1-(7,8-Difluoro-1-oxo-1,2-dihydroisoquinolin-4-yl)ethyl)-3-(4-fluorophenyl)-1-methylurea], under setting [1], the EC50 is 0.07 µM.

In the case of `CC(c1c[nH]c(=O)c2cc(F)c(F)cc12)N(C)C(=O)N[C@@H](C)c1ccccc1` (single isomer, unassigned) [Compound 475], where the note is “Hepatitis B virus, HepDE19, read-out: DE-19bDNA EC50 (μM), HepDE19 assay, inhibition of formation of relaxed circular DNA (rcDNA), bDNA quantitation”, the EC50 was determined as 6.1 µM.

With `C[C@H](c1c[nH]c(=O)c2ccccc12)N(C)C(=O)Nc1ccc(F)c(Cl)c1` [Compound 14, (R)-3-(3-chloro-4-fluorophenyl)-1-methyl-1-(1-(1-oxo-1,2-dihydroisoquinolin-4-yl)ethyl)urea], the EC50 under setting [3] amounted to 0.04 µM.

As to `CC(c1c[nH]c(=O)c2ccccc12)N(CC(C)(C)CO)C(=O)Nc1ccc(F)c(Cl)c1` (single isomer, unassigned) [Compound 210, 3-(3-Chloro-4-fluorophenyl)-1-(3-hydroxy-2,2-dimethylpropyl)-1-(1-(1-oxo-1,2-dihydroisoquinolin-4-yl)ethyl)urea], the concentration for a half-maximal effect (EC50) under setting [2] was determined as 0.1 µM.

For `Cc1cc(NC(=O)N(C)C(C)c2c(C)[nH]c(=O)c3ccccc23)ccc1F` (racemic) [Compound 230, 3-(4-Fluoro-3-methylphenyl)-1-methyl-1-(1-(3-methyl-1-oxo-1,2-dihydroisoquinolin-4-yl)ethyl)urea], under setting [3], the EC50 was 0.12 µM.

In the case of `CC(=O)NCCN(C(=O)Nc1ccc(F)c(Cl)c1)C(C)c1c[nH]c(=O)c2ccccc12` (racemic) [Compound 100, N-(2-(3-(3-chloro-4-fluorophenyl)-1-(1-(1-oxo-1,2-dihydroisoquinolin-4-yl)ethyl)ureido)ethyl)acetamide], under setting [3], the EC50 turned out to be 1 µM.

For `CC(C)CN(C(=O)Nc1ccc(F)cc1)C(C)c1c[nH]c(=O)c2cc(F)c(F)cc12` (single isomer, unassigned) [Compound 288, 1-(1-(6,7-Difluoro-1-oxo-1,2-dihydroisoquinolin-4-yl)ethyl)-3-(4-fluorophenyl)-1-isobutylurea], under setting [1], the EC50 is 0.004 µM.

For orientation: EC50 means the concentration at which the effect is half-maximal.

(Values after US20230045421A1 (priority 2018, published 2023).)
